Laboratory results reported in patent publication US10670605B2, “Cysteine reactive probes and uses thereof” (The Scripps Research Institute, priority 2015, dated 2020).
One block for each compound: values may come before it.

Legend:
Assay in all cases: Competitive isoTOP-ABPP, cell lysates
Assay type in all cases: binding
ACAT1 C196 (P24752) = target: T1, ACAT1 C196 (P24752) (Homo sapiens, UniProt P24752)
T1 sequence (P24752 34-427): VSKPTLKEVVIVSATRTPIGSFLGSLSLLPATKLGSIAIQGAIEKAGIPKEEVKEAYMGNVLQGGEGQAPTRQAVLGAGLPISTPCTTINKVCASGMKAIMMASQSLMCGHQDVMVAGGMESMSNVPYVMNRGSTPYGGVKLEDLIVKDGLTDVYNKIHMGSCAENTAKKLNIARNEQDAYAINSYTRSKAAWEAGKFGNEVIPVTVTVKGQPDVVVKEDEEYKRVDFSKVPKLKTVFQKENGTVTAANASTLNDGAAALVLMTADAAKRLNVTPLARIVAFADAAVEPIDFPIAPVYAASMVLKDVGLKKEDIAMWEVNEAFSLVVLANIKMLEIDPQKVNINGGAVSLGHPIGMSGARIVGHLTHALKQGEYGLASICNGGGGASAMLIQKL

ACAT1 C413 (P24752) = target: T2, ACAT1 C413 (P24752) (Homo sapiens, UniProt P24752); conditions: for R value (DMSO/fragment): in vitro, MDA-MB-231; for isoTOP-ABPP ratio P24752_C413: invitro
T2 sequence (P24752 34-427): T1 sequence (P24752 34-427)

SAMHD1 C522 (Q9Y3Z3) = SAMHD1 C522 (Q9Y3Z3) (Homo sapiens, UniProt Q9Y3Z3)
DCUN1D1 C115 (Q96GG9) = DCUN1D1 C115 (Q96GG9) (Homo sapiens, UniProt Q96GG9); conditions: 500 μM, invitro, ramos
PDIA6 C55 (Q15084) = target: T3, PDIA6 C55 (Q15084) (Homo sapiens, UniProt Q15084)
T3 sequence (Q15084 20-440): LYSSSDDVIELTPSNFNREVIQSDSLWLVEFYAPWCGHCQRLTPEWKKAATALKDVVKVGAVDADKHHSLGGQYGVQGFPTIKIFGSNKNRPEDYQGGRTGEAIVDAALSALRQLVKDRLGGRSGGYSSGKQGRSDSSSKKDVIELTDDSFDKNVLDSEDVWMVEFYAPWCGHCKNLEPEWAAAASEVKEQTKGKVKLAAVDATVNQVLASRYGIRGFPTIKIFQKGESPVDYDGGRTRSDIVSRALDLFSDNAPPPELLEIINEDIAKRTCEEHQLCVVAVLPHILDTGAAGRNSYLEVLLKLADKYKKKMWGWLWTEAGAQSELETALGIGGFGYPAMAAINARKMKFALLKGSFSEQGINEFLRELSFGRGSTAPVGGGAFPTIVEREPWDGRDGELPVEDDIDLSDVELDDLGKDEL

SMARCC2 C145 (Q8TAQ2) = SMARCC2 C145 (Q8TAQ2) (Homo sapiens, UniProt Q8TAQ2)
AIP C122 (O00170) = target: T4, AIP C122 (O00170) (Homo sapiens, UniProt O00170)
T4 sequence (O00170 1-330): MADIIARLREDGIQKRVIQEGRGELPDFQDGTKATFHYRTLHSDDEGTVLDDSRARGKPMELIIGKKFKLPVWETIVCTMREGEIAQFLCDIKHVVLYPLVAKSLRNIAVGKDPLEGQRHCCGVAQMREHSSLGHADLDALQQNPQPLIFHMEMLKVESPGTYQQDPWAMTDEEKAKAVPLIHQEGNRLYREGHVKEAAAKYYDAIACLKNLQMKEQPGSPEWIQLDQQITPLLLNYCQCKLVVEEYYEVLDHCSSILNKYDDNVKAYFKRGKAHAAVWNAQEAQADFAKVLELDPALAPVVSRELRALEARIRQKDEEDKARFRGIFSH

UBE2L3 C86 (P68036) = UBE2L3 C86 (P68036) (Homo sapiens, UniProt P68036)
ACAT1 C126 (P24752) = target: T5, ACAT1 C126 (P24752) (Homo sapiens, UniProt P24752); conditions: for R value (DMSO/fragment): in vitro; for isoTOP-ABPP ratio, P24752_C126: invitro
T5 sequence (P24752 34-427): T1 sequence (P24752 34-427)

STAT3 C259 (P40763) = STAT3 C259 (P40763) (Homo sapiens, UniProt P40763); conditions: for R value (DMSO/fragment): 250 μM, in vitro

R value (DMSO/fragment) (ACAT1 C196 (P24752); 500 μM, in vitro, MDA-MB-231): 12.4
R value (DMSO/fragment) (ACAT1 C196 (P24752); 500 μM, invitro, ramos): 9.3
R value (DMSO/fragment) (ACAT1 C413 (P24752); 500 μM): 18.1
R value (DMSO/fragment) (SAMHD1 C522 (Q9Y3Z3); 500 μM, invitro, ramos): 4.0
R value (DMSO/fragment) (DCUN1D1 C115 (Q96GG9)): 20.0
R value (DMSO/fragment) (PDIA6 C55 (Q15084); 500 μM, in vitro, MDA-MB-231): 6.3
R value (DMSO/fragment) (PDIA6 C55 (Q15084); 500 μM, invitro, ramos): 7.1
R value (DMSO/fragment) (SMARCC2 C145 (Q8TAQ2); 500 μM, in vitro, MDA-MB-231): 8.5
R value (DMSO/fragment) (SMARCC2 C145 (Q8TAQ2); 500 μM, invitro, ramos): 14.0
R value (DMSO/fragment) (AIP C122 (O00170); 500 μM, in vitro, MDA-MB-231): 12.5
R value (DMSO/fragment) (AIP C122 (O00170); 500 μM, invitro, ramos): 6.7
R value (DMSO/fragment) (UBE2L3 C86 (P68036); 500 μM, in vitro, MDA-MB-231): 2.8
R value (DMSO/fragment) (UBE2L3 C86 (P68036); 500 μM, invitro, ramos): 2.5
R value (DMSO/fragment) (ACAT1 C126 (P24752); 500 μM, MDA-MB-231): 20.0
Compound: COc1ccc2c(c1)CCCN2C(=O)CCl [compound 2]

R value (DMSO/fragment) (ACAT1 C196 (P24752); 250 μM, in vitro, MDA-MB-231): 1.9
R value (DMSO/fragment) (ACAT1 C196 (P24752); 250 μM, in vitro, Ramos): 0.5
R value (DMSO/fragment) (ACAT1 C413 (P24752); 250 μM): 3.3
R value (DMSO/fragment) (SAMHD1 C522 (Q9Y3Z3); 250 μM, in vitro, MDA-MB-231): 1.5
R value (DMSO/fragment) (STAT3 C259 (P40763); MDA-MB-231): 2.0
R value (DMSO/fragment) (STAT3 C259 (P40763); Ramos): 1.9
R value (DMSO/fragment) (PDIA6 C55 (Q15084); 250 μM, in vitro, MDA-MB-231): 1.3
R value (DMSO/fragment) (PDIA6 C55 (Q15084); 250 μM, in vitro, Ramos): 1.2
R value (DMSO/fragment) (SMARCC2 C145 (Q8TAQ2); 250 μM, in vitro, MDA-MB-231): 1.3
R value (DMSO/fragment) (AIP C122 (O00170); 250 μM, in vitro, MDA-MB-231): 2.5
R value (DMSO/fragment) (AIP C122 (O00170); 250 μM, in vitro, Ramos): 0.3
R value (DMSO/fragment) (UBE2L3 C86 (P68036); 250 μM, in vitro, MDA-MB-231): 1.2
R value (DMSO/fragment) (ACAT1 C126 (P24752); 250 μM, MDA-MB-231): 2.1
R value (DMSO/fragment) (ACAT1 C126 (P24752); 250 μM, Ramos): 1.2
Compound: COc1ccc(C2CC(c3cccs3)=NN2C(=O)CCl)cc1 (stereo not drawn) [compound 4]

isoTOP-ABPP ratio, P24752_C196 (ACAT1 C196 (P24752); 500 μM, invitro, 231): 1.6
isoTOP-ABPP ratio, P24752_C196 (ACAT1 C196 (P24752); 500 μM, invitro, ramos): 1.7
isoTOP-ABPP ratio P24752_C413 (ACAT1 C413 (P24752); 500 μM, 231): 5.5
isoTOP-ABPP ratio P24752_C413 (ACAT1 C413 (P24752); 500 μM, ramos): 7.3
isoTOP-ABPP ratio, Q9Y3Z3_C522 (SAMHD1 C522 (Q9Y3Z3); 500 μM, invitro, 231): 0.8
isoTOP-ABPP ratio, P40763_C259 (STAT3 C259 (P40763); 500 μM, invitro, ramos): 1.2
isoTOP-ABPP ratio Q15084_C55 (PDIA6 C55 (Q15084); 500 μM, invitro, 231): 1.9
isoTOP-ABPP ratio Q15084_C55 (PDIA6 C55 (Q15084); 500 μM, invitro, ramos): 1.1
isoTOP-ABPP ratio Q8TAQ2_C145 (SMARCC2 C145 (Q8TAQ2); 500 μM, invitro, ramos): 0.8
isoTOP-ABPP ratio, O00170_C122 (AIP C122 (O00170); 500 μM, invitro, ramos): 0.9
isoTOP-ABPP ratio, P68036_C86 (UBE2L3 C86 (P68036); 500 μM, invitro, 231): 1.1
isoTOP-ABPP ratio, P68036_C86 (UBE2L3 C86 (P68036); 500 μM, invitro, ramos): 0.8
isoTOP-ABPP ratio, P24752_C126 (ACAT1 C126 (P24752); 500 μM, 231): 9.6
isoTOP-ABPP ratio, P24752_C126 (ACAT1 C126 (P24752); 500 μM, ramos): 20.0
Compound: O=C(CCl)NCCc1c[nH]c2ccccc12 [compound 13]
